Reference: patent US20240123022A1, “A STABLE ANTI-ANGIOGENIC AND ANTI-INFLAMMATORY PHARMACEUTICAL FORMULATION AND PHARMACEUTICAL COMBINATION FOR TREATMENT AND PREVENTION OF PSORIASIS” (priority 2021, published 2024)

Experiment: Stability of IS217 API, long-term condition −20 ± 5° C.
Format: physicochemical
Settings: for Appearance, change / Assessment of container closure system, change / Clarity of solution, change / Color of Solution, change / Color, change / Odor, change: long-term −20 ± 5° C.
Experimental: The purpose of stability testing is to provide evidence on how the quality of a drug substance or drug product varies with time under the influence of a variety of environmental factors such as temperature, humidity, etc. and to establish a re-test period for the drug substance or a shelf life for the drug product and recommended storage conditions. The study was conducted according to the WHO and Schedule-Y guidelines.
The drug substance is a lyophilized white fluffy powder, and it was filled at sterile condition in glass injection vial which has airlock-rubber capping. This container closure system is the same as or simulates the packaging proposed for storage and distribution.
This study has included testing of those attributes of the drug substance that are susceptible to change during storage and are likely to influence quality, safety and/or efficacy. The testing was covered, as appropriate, the physical and chemical attributes.
The following test attributes have been selected according to above said guidelines. • Appearance; odour; colour; colour of solution (when the drug substance is soluble in solvent); clarity of solution; degradation and assessment of container closure system
Testing frequency for long-term studies have been designed as per schedule Y. […]
The studies were conducted under appropriate storage conditions (with appropriate tolerances) that test drug substance thermal stability and its sensitivity to moisture. The drug substance is intended to store for 24 months. Accordingly, long term stability studies were done for 24 months. The details of the storage conditions have been furnished hereunder.
23.4: Long term stability study results Name of the Product: IS217; Batch size: 200 m·mol; Storage Conditions: −20±5° C.

H-FAKKFAKKFK-OH [IS217, H-Phe-Ala-Lys-Lys-Phe-Ala-Lys-Lys-Phe-Lys-OH]
stability of IS217 API (6 months at long term stability condition −20 ± 5° C.): stable
Appearance, change (1st month): No change
Assessment of container closure system, change (1st month): No change
Clarity of solution, change (1st month): No change
Color of Solution, change (1st month): No change
Color, change (1st month): No change
Odor, change (1st month): No change
Appearance, change (2nd month): No change
Assessment of container closure system, change (2nd month): No change
Clarity of solution, change (2nd month): No change
Color of Solution, change (2nd month): No change
Color, change (2nd month): No change
Odor, change (2nd month): No change
Appearance, change (3rd month): No change
Assessment of container closure system, change (3rd month): No change
Clarity of solution, change (3rd month): No change
Color of Solution, change (3rd month): No change
Color, change (3rd month): No change
Odor, change (3rd month): No change
Appearance, change (6th month): No change
Assessment of container closure system, change (6th month): No change
Clarity of solution, change (6th month): No change
Color of Solution, change (6th month): No change
Color, change (6th month): No change
Odor, change (6th month): No change
API calculated on the anhydrous basis (OAB) (−20 ± 5° C., 1 M): 98.98%
Related substances (By HPLC), Any Max. Impurity (−20 ± 5° C., 1 M): 0.64%
Related substances (By HPLC), Total Impurity (−20 ± 5° C., 1 M): 0.85%
Solubility (Soluble in water) (−20 ± 5° C., 1 M): Complies
Water Content (By Karl Fischer-Titrator) (−20 ± 5° C., 1 M): 4.89% w/w
API calculated on the anhydrous basis (OAB) (−20 ± 5° C., 2 M): 99.14%
Related substances (By HPLC), Any Max. Impurity (−20 ± 5° C., 2 M): 0.64%
Related substances (By HPLC), Total Impurity (−20 ± 5° C., 2 M): 0.85%
Solubility (Soluble in water) (−20 ± 5° C., 2 M): Complies
Water Content (By Karl Fischer-Titrator) (−20 ± 5° C., 2 M): 4.83% w/w
API calculated on the anhydrous basis (OAB) (−20 ± 5° C., 3 M): 99.15%
Related substances (By HPLC), Any Max. Impurity (−20 ± 5° C., 3 M): 0.72%
Related substances (By HPLC), Total Impurity (−20 ± 5° C., 3 M): 0.85%
Solubility (Soluble in water) (−20 ± 5° C., 3 M): Complies
Water Content (By Karl Fischer-Titrator) (−20 ± 5° C., 3 M): 4.52% w/w
API calculated on the anhydrous basis (OAB) (−20 ± 5° C., 6 M): 99.40%
Related substances (By HPLC), Any Max. Impurity (−20 ± 5° C., 6 M): 0.35%
Related substances (By HPLC), Total Impurity (−20 ± 5° C., 6 M): 0.61%
Solubility (Soluble in water) (−20 ± 5° C., 6 M): Complies
Water Content (By Karl Fischer-Titrator) (−20 ± 5° C., 6 M): 4.99% w/w
API calculated on the anhydrous basis (OAB) (−20 ± 5° C., Initial): 99.28%
Related substances (By HPLC), Any Max. Impurity (−20 ± 5° C., Initial): 0.60%
Related substances (By HPLC), Total Impurity (−20 ± 5° C., Initial): 0.72%
Remark (−20 ± 5° C., Initial): Complies
Solubility (Soluble in water) (−20 ± 5° C., Initial): Complies
Water Content (By Karl Fischer-Titrator) (−20 ± 5° C., Initial): 4.66% w/w
